From US20250113823A1, “Arthropod Control Compositions” (priority 2022, published 2025)

Test system: Aedes aegypti
Test: Double (dual) chamber assay, spatial repellence
Assay type: in vivo
Conditions: after 30 min of injection
Procedure: FIG. 1: Percentage of mosquitoes Aedes aegypti escaping over time the chamber treated with a stimulus. The four stimuli were the solvent propan-1,2-diol (grey triangles and dotted line), N,N-diethyl-meta-toluamide (medium grey diamonds), 2,6-dimethoxy-4-methylphenol (light gray squares) and 1,2,3-trimethoxy-5-propylbenzene (black circles). Each stimulus was injected during 40 min thanks to a forced evaporation system in the treated chamber containing the mosquitoes, causing their movement toward the untreated refuge chamber. Each point represents the mean number of mosquitoes in the untreated chamber (n=57, 6, 4 and 4 respectively)±SD at 10 min intervals.
The goal of this assay was to reproduce at a smaller scale the validation test for spatial repellent as described in WHO (2013; ISBN 978 92 4 150502 4).
The assay consists of a transparent cage (1200×755×700 mm; ˜0.63 m^3) covered by white paper. This cage is divided in two chambers of equal dimensions by a plasticized paper wall with square opening (200×200 mm) situated in the middle of the wall. At the beginning of the experiment, about 40 two-weeks old female Aedes aegypti mosquitoes are placed in the right chambers. Once the mosquitoes are settled inside this chamber (>5 min), the door between the chambers is opened. Then the stimulus is introduced into the mosquito chamber through a L-shape Teflon tube (40 mm) placed in the middle of the right Plexiglas wall. The stimulus is dispensed thanks to a Forced Evaporation System (Chappuis et al, 2015, DOI: 10.1021/acs.est.5b00692) at a rate of 0.1 mL/min in a nitrogen flow of 1 L/min, blended in a humid air flow of 9L/min before being carried to the L-shape Teflon tube. An air sucking system (˜150 L/min) is placed above the wall opening, between the two chambers (100 mm Ø), preventing the untreated chamber from being contaminated by the stimulus and limiting the stimulus accumulation in the treated chamber. […] Ten, 20, 30 and 40 minutes after the start of the stimulus injection, the number of mosquitoes that have moved to the untreated chamber is manually counted.

## CCCc1cc(OC)c(OC)c(OC)c1 [compound 1975, 1,2,3-trimethoxy-5-propylbenzene]
  plateau of mosquitoes moved to the untreated chamber: ~54%
